# {NH2} = code of the source, not defined here; [4sU] = 4-thiouridine
# Target: T1, recombinant His6-QKI protein (Homo sapiens, UniProt Q96PU8)
# T1 construct: His6 (N); made in house; host or cells: E. coli STAR(DE3)
# T1 sequence (Q96PU8 1-319 isoform Q96PU8-9): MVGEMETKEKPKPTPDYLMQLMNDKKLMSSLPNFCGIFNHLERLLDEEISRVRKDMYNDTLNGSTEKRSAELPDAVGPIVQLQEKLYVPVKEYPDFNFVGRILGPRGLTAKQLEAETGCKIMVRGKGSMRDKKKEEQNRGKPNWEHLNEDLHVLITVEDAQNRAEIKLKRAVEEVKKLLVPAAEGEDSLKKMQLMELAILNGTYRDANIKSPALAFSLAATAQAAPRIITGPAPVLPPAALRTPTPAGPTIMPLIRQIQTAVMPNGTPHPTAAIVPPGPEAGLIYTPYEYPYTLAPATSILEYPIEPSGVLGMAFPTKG
# Test: Electrophoretic mobility shift assay (gel-shift) with recombinant QKI
# Assay type: binding
# Conditions: not given
# Experimental: FIG. 11: Electrophoretic mobility shift assay (EMSA) to analyze binding of recombinant QKI to synthetic oligoribonucleotides with a sequence derived from a cluster identified by QKI PURE-CLIP. […] C Mutation of either one of the QKI binding sites (marked with red bars in the RNA-sequence) results in decreased affinity of QKI to the RNA. Mutation of both binding sites leads to complete loss of affinity of QKI to the RNA.
# Radiolabeled RNA (1 nM) was incubated with recombinant His6-QKI protein at various concentrations and 100 ng tRNA in 20 μl of 20 mM HEPES-KOH, pH 7.4, 330 mM KCl, 10 mM MgCl2, 0.1 mM EDTA and 0.01% IGEPAL CA630 (Sigma). After addition of 6 μl loading dye (40% glycerol, bromophenol blue in binding buffer), the solution was loaded onto a native 10% acrylamide gel containing 0.5×TBE, running at 200 V for 2 h at room temperature, using 0.5×TBE as running buffer. The protein-bound RNA and the free RNA were quantified using a phosphorimager.
row,Substance,RNA-binding / affinity to recombinant QKI by gel-shift analysis
1,"U10: synthetic oligoribonucleotide with 4SU at position 3 of the QKI recognition element; GUAUGCCAU(4sU)AACAAAUUCAUUAACAA (SEQ ID NO: 31) (GUAUGCCAUUAACAAAUUCAUUAACAA; RNA, [4sU] at 10, backbone not given here)",unaffected

# System: most abundant miRNAs in HEK293 cells
# Test: miRNA inhibition by cocktail of 2'-O-methyl antisense oligoribonucleotides in HEK293 cells; seed match depletion/enrichment in down-/up-regulated transcripts (Affymetrix arrays)
# Assay type: cell-based, human
# Conditions: antisense cocktail vs mock
# Experimental: All miRNAs are assumed to have U at position 1. p-values for 4 types of seeds, indicated below, were tested.
# miRNAs are predominantly localized to the cytoplasm although a smaller fraction can be detected in nuclear extracts (Hwang et al., 2007; Meister et al., 2004; Pena et al., 2009; Robb et al., 2005; Weinmann et al., 2009). Our CCRs correspond to 84% exonic, 14% intronic, and 2% not assigned transcribed regions. This distribution is consistent with the predominant cytoplasmic function of miRNAs. Of the exonic CCRs, 50% distributed to the CDS, 46% to the 3′ UTR, and 4% to the 5′ UTR of mRNAs, with a specific enrichment in the 3′UTRs relative to what is expected based on the relative lengths of different transcript regions (FIG. 6D). The identification of such a large number of miRNA binding sites within the CDS was unexpected, because miRNA are believed to predominantly act on 3′ UTRs (Bartel, 2009), with a few reports providing evidence for miRNA-binding to 5′ UTR or CDS (Forman et al., 2008; Lytle et al., 2007; Orom et al., 2008; Tay et al., 2008). In order to determine if CCR-containing transcripts were indeed subject to miRNA-dependent regulation, we inhibited 25 of the most abundant miRNAs in HEK293 cells (FIG. 5C) with a cocktail of 2′-O-methyl-modified antisense oligoribonucleotides (FIG. 7A and see FIG. 28A-C for the efficiency of the individual antisense oligoribonucleotide). The change in relative mRNA abundance before and after miRNA inhibition was recorded by Affymetrix whole transcriptome array analysis.
# miRNA duplexes and 2′-O-methyl oligoribonucletide transfections of HEK293 TREx Flp-In cells were carried out using Lipofectamine RNAiMAX (Invitrogen). Total RNA was isolated by TRIZOL RNA extraction. The RNA was further purified and Human Genome U133 Plus 2.0 Array (Affymetrix) analyses were performed as described previously (Landthaler et al., 2008).
# CEL files of mRNA profiles from miRNA/2′O-methyl oligonucleotide and mocktransfected cell were loaded into the R software using the BioConductor affy package (Gentleman et al., 2004). The transcript probe set intensities were background-corrected, adjusted for non-specific binding and quantile normalized with the GCRMA algorithm (Wu, 2006). Probe sets with more than 6 of the 11 probes mapping ambiguously to the genome were discarded, as were probe sets that mapped to multiple genes. We then collected all probe sets matching a given gene, and we computed the logarithm of gene-level expression as the average of the log-intensity of probe sets mapping to that gene. For sequence analyses we also selected a representative transcript for each gene. This was the Genbank transcript with median 3′ UTR length corresponding to that gene. In total this procedure gave us expression measurements for 16,063 genes (and representative transcripts). The difference between the log-expression levels of a gene in samples treated with a cocktail of 2′-O-methyl oligoribonucleotides and mock transfected cells was taken as a measure of transcript stabilization upon miRNA inhibition.
row,Substance,efficiency of the individual antisense oligoribonucleotide (inhibition of cognate miRNA)
1,"miR-27a: 2'-O-methyl antisense oligoribonucleotide AACUAUACAAUCUACUACCUCA (SEQ ID NO: 55) (all 2'-O-methyl, backbone not given here)",did not seem to have inhibited their cognate miRNAs
2,"let-7a: 2'-O-methyl antisense oligoribonucleotide AACUAUACAACCUACUACCUCA-NH2 (SEQ ID NO: 42) (all 2'-O-methyl, 3' {NH2}, backbone not given here)",Marginal
3,"miR-186: 2'-O-methyl antisense oligoribonucleotide AGCCCAAAAGGAGAAUUCUUUG (SEQ ID NO: 63) (all 2'-O-methyl, backbone not given here)",Didn't Work Well
4,"miR-101: 2'-O-methyl antisense oligoribonucleotide UUCAGUUAUCACAGUACUGUA (SEQ ID NO: 60) (all 2'-O-methyl, backbone not given here)",Marginal
5,"miR-378: 2'-O-methyl antisense oligoribonucleotide CCUUCUGACUCCAAGUCCAGU (SEQ ID NO: 65) (all 2'-O-methyl, backbone not given here)",Marginal
6,"miR-17: 2'-O-methyl antisense oligoribonucleotide CUACCUGCACUGUAAGCACUUUG (SEQ ID NO: 47) (all 2'-O-methyl, backbone not given here)",Worked
7,"miR-10a: 2'-O-methyl antisense oligoribonucleotide CACAAAUUCGGAUCUACAGGGUA-NH2 (SEQ ID NO: 43) (all 2'-O-methyl, 3' {NH2}, backbone not given here)",did not seem to have inhibited their cognate miRNAs
8,"miR-92a: 2'-O-methyl antisense oligoribonucleotide ACAGGCCGGGACAAGUGCAAUA (SEQ ID NO: 58) (all 2'-O-methyl, backbone not given here)",Worked
9,"miR-19a: 2'-O-methyl antisense oligoribonucleotide UCAGUUUUGCAUAGAUUUGCACA (SEQ ID NO: 49) (all 2'-O-methyl, backbone not given here)",Worked
10,"miR-301b: 2'-O-methyl antisense oligoribonucleotide GCUUUGACAAUACUAUUGCACUG (SEQ ID NO: 64) (all 2'-O-methyl, backbone not given here)",Worked
11,"miR-18a: 2'-O-methyl antisense oligoribonucleotide CUAUCUGCACUAGAUGCACCUUA-NH2 (SEQ ID NO: 48) (all 2'-O-methyl, 3' {NH2}, backbone not given here)",Worked
12,"miR-15a: 2'-O-methyl antisense oligoribonucleotide CGCCAAUAUUUACGUGCUGCUA (SEQ ID NO: 44) (all 2'-O-methyl, backbone not given here)",Worked
13,"miR-21: 2'-O-methyl antisense oligoribonucleotide UCAACAUCAGUCUGAUAAGCUA (SEQ ID NO: 53) (all 2'-O-methyl, backbone not given here)",Marginal
14,"miR-30a: 2'-O-methyl antisense oligoribonucleotide CUUCCAGUCGAGGAUGUUUACA-NH2 (SEQ ID NO: 56) (all 2'-O-methyl, 3' {NH2}, backbone not given here)",Worked
15,"miR-103: 2'-O-methyl antisense oligoribonucleotide UCAUAGCCCUGUACAAUGCUGCU (SEQ ID NO: 61) (all 2'-O-methyl, backbone not given here)",Worked

# Same assay, conditions: antisense cocktail vs mock, listed as MiR-10a
row,Substance,efficiency of the individual antisense oligoribonucleotide (inhibition of cognate miRNA)
1,"miR-10a: 2'-O-methyl antisense oligoribonucleotide CACAAAUUCGGAUCUACAGGGUA-NH2 (SEQ ID NO: 43) (all 2'-O-methyl, 3' {NH2}, backbone not given here)",Didn't Work

# Same assay, conditions: antisense cocktail vs mock, listed as MiR-27a
row,Substance,efficiency of the individual antisense oligoribonucleotide (inhibition of cognate miRNA)
1,"miR-27a: 2'-O-methyl antisense oligoribonucleotide AACUAUACAAUCUACUACCUCA (SEQ ID NO: 55) (all 2'-O-methyl, backbone not given here)",Didn't Work
